Laboratory results taken from patent US12180372B2, “Resin composition, optical filter, image display device, solid-state imaging element, and colorant mixture” (FUJIFILM Corporation, priority 2018, dated 2024).

Key:
[1] = Measurement of maximum absorption wavelength of colorant or colorant mixture in chloroform solution; type: physicochemical; conditions: colorant mixture in chloroform, 1×10^−6 mol/L, 10 mm cell, 23° C.
Description: The obtained compound F-3 was dissolved in chloroform (concentration: 1×10^−6 mol/L), and the maximum absorption wavelength […] and molar absorption coefficient (c) of the compound F-3 was measured using a cell having an optical path length of 10 mm and using a spectrophotometer UV-1800PC (manufactured by Shimazu Corporation). The maximum absorption wavelength λmax of the compound F-3 was 679 nm, and the molar absorption coefficient (s) was 355000. The obtained compound F-38 was dissolved in chloroform (concentration: 1×10^−6 mol/L), and the maximum absorption wavelength […] and molar absorption coefficient (ε) of the compound F-38 was measured using a cell having an optical path length of 10 mm and using a spectrophotometer UV-1800PC (manufactured by Shimadzu Corporation). The maximum absorption wavelength λmax of the compound F-38 was 590 nm, and the molar absorption coefficient (ε) was 204000. The obtained compound F-51 was dissolved in chloroform (concentration: 1×10^−6 mol/L), and the maximum absorption wavelength λmax and molar absorption coefficient (ε) of the compound F-51 was measured using a cell having an optical path length of 10 mm and using a spectrophotometer UV-1800 (PC (manufactured by Shimadzu Corporation). The maximum absorption wavelength λmax of the compound F-51 was 589 nm, and the molar absorption coefficient (ε) was 244000. The obtained compound F-75 was dissolved in chloroform (concentration: 1×10^−6 mol/L), and the maximum absorption wavelength λmax and molar absorption coefficient (ε) of the compound F-75 was measured using a cell having an optical path length of 10 mm and using a spectrophotometer t-UV-1800PC (manufactured by Shimadzu Corporation). The maximum absorption wavelength λmax of the compound F-75 was 589 nm, and the molar absorption coefficient (ε) was 221000.

[2] = Evaluation of solubility of colorant mixture; type: physicochemical; conditions: for Evaluation Solubility: added to toluene at 23° C., stirred for 1 hour, visually observed; for solubility in toluene: 23° C.
Description: Solubility of the colorant mixture shown in the following table in […] was evaluated. Specifically, the colorant mixture was added to toluene at 23° C., stirred for 1 hour, and the presence or absence of dissolution of the colorant was visually observed and the solubility was evaluated based on the following evaluation standard.

λmax (nm) [1] [nm]	solubility in toluene [2]	Compound	Evaluation Solubility [2]
673	less than 0.5 % by mass	CCN(CC)c1ccc(C2=C([O-])/C(=C3/C=CC(=[N+](CC)CC)C=C3NC(=O)C(C)(C)CC)C2=O)c(NC(=O)C(C)(C)CC)c1 [Compound A-24]	C (solubility was 0.1% by mass or more and less than 0.5% by mass)
634	less than 01 % by mass	CCN(CC)c1ccc(C2=C([O-])C(=C3C=CC(=[N+](CC)CC)C=C3)C2=O)cc1 [Compound A-21]	D (solubility was less than 0.1% by mass)
498	less than 0.1 % by mass	CC1=CC(C)=N/C1=C1\C(=O)C(c2[nH]c(C)cc2C)=C1O [Compound A-3]	D (solubility was less than 0.1% by mass)
